The record followed here is PMC6195508, “Studies on the metabolism and degradation of vancomycin in simulated in vitro and aquatic environment by UHPLC-Triple-TOF-MS/MS” (Scientific Reports, 2018).

The nature of series [1]: Incubation of vancomycin in activated (experimental) and inactivated (control) rat liver microsomes. In kind it is in vitro ADME. The settings on record: vancomycin 60 mg/L, 37 °C, UHPLC-Triple-TOF-MS/MS. The method, then: (§1) UHPLC-Triple-TOF-MS/MS analysis was performed on a Shimadzu LC-30A UHPLC system (Kyoto, Japan) consisting of an autosampler (SIL-30AC), a binary pump (LC-30AD) and a column oven (CTO-30A) connected to an AB SCIEX triple TOF 5600 MS/MS system (Redwood, USA) equipped with Duo-Spray ion source. The compound separation was conducted with a Poroshell 120 EC-C18 (2.1 × 150 mm, 2.7 μm, Agilent InfinityLab, USA) chromatographic column maintained at 40 °C. The mobile phases A (0.1% aqueous formic acid) and B (acetonitrile) were used to optimized the gradient elution program, which was operated at follows: 0–1 min, 5% B; 1–9 min, 5–10% B; 9–14 min, 10–45% B; 14–20 min, 45–90% B; 20–25 min, 90% B for washing the column; 25–25.1 min, 90–5% B; 25.1–30 min, 5% B for equilibrating the column. The constant flow rate was 0.4 mL/min, and the injection volume was 5 µL.
(§2) The full-scan MS spectra and MS/MS spectra data were obtained in positive electrospray ionization (ESI) mode by Analyst TF 1.6 software (AB Sciex, USA). Full scan mode was applied, the parent ions scan ranged from m/z 100 to 2000 Da with a 200 ms accumulation time and the product ions scan range from 100 to 1500 Da with a 70 ms accumulation time. Simultaneously, the calibration delivery system calibrated mass numbers by every five samples to acquire exact mass of ions. The running time of data independent acquisition (DIA) was 20 min. […]
A general note: Microsomes from liver hold many membrane-bound enzymes, among them those of drug oxidation.

Series [2] in a line: Degradation of vancomycin in pure water (pure water system). The format is physicochemical. The settings on record: chemical stability in pure (Milli-Q) water; vancomycin 60 mg/L; 37 °C, constant temperature oscillator, sampled every 24 h for 10 days; one sample per time point; UHPLC-Triple-TOF-MS/MS, ESI+. The method, then:
as §1, §2

The nature of series [3]: Degradation of vancomycin in phosphate buffer saline (PBS system). In kind it is physicochemical. The settings on record: chemical stability in phosphate buffer saline; vancomycin 60 mg/L; 37 °C, constant temperature oscillator, sampled every 24 h for 10 days; one sample per time point; UHPLC-Triple-TOF-MS/MS, ESI+. The protocol: as §1, §2

`CN[C@H](CC(C)C)C(=O)N[C@H]1C(=O)N[C@@H](CC(N)=O)C(=O)N[C@H]2C(=O)N[C@H]3C(=O)N[C@H](C(=O)N[C@H](C(=O)O)c4cc(O)cc(O)c4-c4cc3ccc4O)[C@H](O)c3ccc(c(Cl)c3)Oc3cc2cc(c3O[C@@H]2O[C@H](CO)[C@@H](O)[C@H](O)[C@H]2O[C@H]2C[C@](C)(N)[C@H](O)[C@H](C)O2)Oc2ccc(cc2Cl)[C@H]1O` [vancomycin, Vancomycin]: in series [1] (male, Sprague-Dawley rat liver microsomes 1 mg/mL protein (activated with 1 mmol/L NADPH, or inactivated), PBS, MgCl2 3.3 mmol/L, constant temperature oscillator, pre-heated 5 min, sampled every 24 h for 10 days, one sample per time point, ESI+, read-out: time to 50% loss of vancomycin in rat liver microsomes (converted)), the half-life at 60 mg/L is around 144 h. The “metabolism by liver microsomal cytochrome P450 enzymes (activated versus inactivated microsomes)” value in series [1] (similar degradation rate in activated (NADPH 1 mmol/L) and inactivated rat liver microsomes, 1 mg/mL protein) is “not metabolized in the liver”. In addition, the “time to 50% loss of vancomycin in water” value in series [2] is recorded as “over 10 days”. The “time to 50% loss of vancomycin in PBS” value in series [3] is “approximately 9 days”.
